ChEMBL document CHEMBL4190376, “Mapping the Efficiency and Physicochemical Trajectories of Successful Optimizations” (J Med Chem, 2018)
≈ marks a conversion by molar mass, not a printed value.

What was measured:
[1] = Ratio of drug level in rat liver to plasma; type: ADME
[2] = Oral bioavailability in rat; type: ADME, organism-based; details: in vivo
[3] = Lipophilicity, log D of the compound at pH 7.4 by chromatographic method; type: physicochemical; details: buffer
physchem = details: aqueous
[4] = Oral bioavailability in human; type: ADME, organism-based; details: in vivo
[5] = Solubility of the compound in pH 7.4 solution; type: physicochemical
[6] = Solubility of the compound in FaSSIF; type: physicochemical

Compound: COC(=O)N[C@H](C(=O)N1CCC[C@H]1c1nc(-c2ccc(-c3ccc(-c4c[nH]c([C@@H]5CCCN5C(=O)[C@@H](NC(=O)OC)C(C)C)n4)cc3)cc2)c[nH]1)C(C)C
- Kp [1]: 5
- bioavailability [2]: 50%

Compound: COc1cc2c(cc1Cc1cccc(Cl)c1F)c(=O)c(C(=O)O)cn2[C@H](CO)C(C)C
- chromatographic logD [3]: 6.4

Compound: CCC[C@H](NC(=O)[C@@H]1[C@H]2CCC[C@H]2CN1C(=O)[C@@H](NC(=O)[C@@H](NC(=O)c1cnccn1)C1CCCCC1)C(C)(C)C)C(=O)C(=O)NC1CC1
- solubility (physchem): 4.7 µg/mL (≈ 6.91 µM)

Compound: Cc1nnc(C(=O)NC(C)(C)c2nc(C(=O)NCc3ccc(F)cc3)c(O)c(=O)n2C)o1
- chromatographic logD [3]: 3.3

Compound: Cc1nnc(C(C)C)n1C1C[C@@H]2CC[C@@H](C1)N2CC[C@H](NC(=O)C1CCC(F)(F)CC1)c1ccccc1 (some centres undefined)
- bioavailability [4]: 23%

Compound: C[C@@H]1CCO[C@H]2Cn3cc(C(=O)NCc4ccc(F)cc4F)c(=O)c(O)c3C(=O)N12 [DOLUTEGRAVIR]
- chromatographic logD [3]: 3.7

Compound: CC1(C)CCC(CN2CCN(c3ccc(C(=O)NS(=O)(=O)c4ccc(NCC5CCOCC5)c([N+](=O)[O-])c4)c(Oc4cnc5[nH]ccc5c4)c3)CC2)=C(c2ccc(Cl)cc2)C1 [VENETOCLAX]
- solubility [5]: 0.4 µg/mL (≈ 0.461 µM)
- solubility [6]: 11 µg/mL (≈ 12.7 µM)
